Experimental data from patent US20240066027A1 (DOMAIN THERAPEUTICS, priority 2020, published 2024).

target: T1, human PAR-2 (hPAR-2) receptor expressed in HEK-293 T cells in an endogenous manner (Homo sapiens, UniProt P55085); experiment: In vitro human PAR-2 functional antagonist activity using calcium assays (Fluo4AM, FLIPR Tetra); assay type: cell-based; conditions: HEK-293 T cells stimulated by an EC80 of the 2-Furoyl-LIGRLO-NH2 peptide after 10 min incubation with compound; 20 concentrations, duplicate, two independent experiments
T1 construct: human PAR-2 (hPAR-2) receptor expressed in HEK-293 T cells in an endogenous manner; endogenous in cells; host or cells: HEK-293 T cells
T1 sequence (P55085 26-397): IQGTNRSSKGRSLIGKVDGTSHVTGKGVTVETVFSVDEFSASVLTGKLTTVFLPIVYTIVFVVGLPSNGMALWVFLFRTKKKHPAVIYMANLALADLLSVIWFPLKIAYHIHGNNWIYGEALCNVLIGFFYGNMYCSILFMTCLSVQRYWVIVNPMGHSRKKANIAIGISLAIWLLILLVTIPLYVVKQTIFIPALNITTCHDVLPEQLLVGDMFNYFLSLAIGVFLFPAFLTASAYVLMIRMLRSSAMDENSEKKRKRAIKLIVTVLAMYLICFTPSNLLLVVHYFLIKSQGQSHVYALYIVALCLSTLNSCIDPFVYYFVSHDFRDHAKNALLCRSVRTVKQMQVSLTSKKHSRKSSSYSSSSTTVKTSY
In short: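 Antagonist activity was taken as the decrease in the calcium response to an EC80 of 2-Furoyl-LIGRLO-NH2, measured over 5 min. The agonist was added after a 10 min compound-alone step on the same plate. The HEK-293 T cells express PAR-2 endogenously and were loaded with 1 μM Fluo4AM. Signals were referenced to buffer and EC80-alone controls.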

Row | IC50 [µM] | Compound
1 | 0.02 to 10 | CC(C)Cn1cc(-c2ccccc2OC(F)(F)F)c2ccc(C(=O)N3CCNC(=O)C3(C)C)nc21 [Example 112, 4-(1-isobutyl-3-(2-(trifluoromethoxy)phenyl)-1H-pyrrolo[2,3-b]pyridine-6-carbonyl)-3,3-dimethylpiperazin-2-one]
2 | 0.02 to 10 | CCOCCn1cc(-c2ccc(Cl)c(F)c2)c2ccc(C(=O)N3CCNC(=O)C3(C)C)nc21 [Example 42, 4-(3-(4-chloro-3-fluorophenyl)-1-(2-ethoxyethyl)-1H-pyrrolo[2,3-b]pyridine-6-carbonyl)-3,3-dimethylpiperazin-2-one]
3 | 0.02 to 10 | Cc1cc(N2CCN(C(=O)c3ncc4c(-c5ccc(Cl)c(F)c5)cn(CC(C)C)c4n3)C(C)(C)C2)nc(C)c1C(=O)O [Example 175, 6-(4-(5-(4-chloro-3-fluorophenyl)-7-isobutyl-7H-pyrrolo[2,3-d]pyrimidine-2-carbonyl)-3,3-dimethylpiperazin-1-yl)-2,4-dimethylnicotinic acid]
4 | 0.02 to 10 | Cc1cc(N2CC3CN(C(=O)c4ccc5c(-c6ccc(Cl)c(F)c6)cn(C(C)(C)C)c5n4)C3C2)nc(C)c1C(=O)O (stereo not drawn) [Example 101, 6-(6-(1-(tert-butyl)-3-(4-chloro-3-fluorophenyl)-1H-pyrrolo[2,3-b]pyridine-6-carbonyl)-3,6-diazabicyclo[3.2.0]heptan-3-yl)-2,4-dimethylnicotinic acid]
5 | < 0.02 | COCC(C)(C)n1cc(-c2ccc(Cl)c(F)c2)c2ccc(C(=O)N3CCN(c4cc(C)c(C(=O)O)c(C)n4)CC3(C)C)nc21 [Example 152, 6-(4-(3-(4-chloro-3-fluorophenyl)-1-(1-methoxy-2-methylpropan-2-yl)-1H-pyrrolo[2,3-b]pyridine-6-carbonyl)-3,3-dimethylpiperazin-1-yl)-2,4-dimethylnicotinic acid]
6 | 0.02 to 10 | CC(C)(C)n1cc(-c2ccc(Cl)c(F)c2)c2ccc(C(=O)N3CCCNC(=O)C3)nc21 [Example 17, 4-(1-(tert-butyl)-3-(4-chloro-3-fluorophenyl)-1H-pyrrolo[2,3-b]pyridine-6-carbonyl)-1,4-diazepan-2-one]
7 | > 10 | CC(C)(C)c1cn(-c2ccc(Cl)c(F)c2)c2ccc(C(=O)N3CCC(CC(=O)O)CC3)nc12 [Example 222, 2-(1-(3-(tert-butyl)-1-(4-chloro-3-fluorophenyl)-1H-pyrrolo[3,2-b]pyridine-5-carbonyl)piperidin-4-yl)acetic acid]
8 | 0.02 to 10 | CC(C)(C)n1cc(-c2ccc(Cl)c(F)c2)c2ccc(C(=O)N3CCC(C(=O)O)CC3)nc21 [Example 162, 1-(1-(tert-butyl)-3-(4-chloro-3-fluorophenyl)-1H-pyrrolo[2,3-b]pyridine-6-carbonyl)piperidine-4-carboxylic acid]
9 | 0.02 to 10 | Cc1cc(N2CCN(C(=O)c3ccc4c(-c5ccc(Cl)c(F)c5)cn(Cc5ncccn5)c4n3)C(C)(C)C2)nc(C)c1C(=O)O [Example 158, 6-(4-(3-(4-chloro-3-fluorophenyl)-1-(pyrimidin-2-ylmethyl)-1H-pyrrolo[2,3-b]pyridine-6-carbonyl)-3,3-dimethylpiperazin-1-yl)-2,4-dimethylnicotinic acid]
10 | < 0.02 | Cc1cc(N2CCN(C(=O)c3ccc4c(-c5ccc(Cl)c(F)c5)cn(C5CCOCC5)c4n3)C(C)(C)C2)nc(C)c1C(=O)O [Example 98]
11 | 0.02 to 10 | CC1(C)CCCN1C(=O)c1ccc2c(-c3ccc(Cl)c(F)c3)cn(C(C)(C)C)c2n1 [Example 16, (1-(tert-butyl)-3-(4-chloro-3-fluorophenyl)-1H-pyrrolo[2,3-b]pyridin-6-yl)(2,2-dimethylpyrrolidin-1-yl)methanone]
12 | 0.02 to 10 | Cc1cc(N2CCN(C(=O)c3ccc4c(-c5ccc(Cl)c(F)c5)cn(C(C)(C)C)c4n3)CC2CO)nc(C)c1C(=O)O (stereo not drawn) [Example 157, 6-(4-(1-(tert-butyl)-3-(4-chloro-3-fluorophenyl)-1H-pyrrolo[2,3-b]pyridine-6-carbonyl)-2-(hydroxymethyl)piperazin-1-yl)-2,4-dimethylnicotinic acid]
13 | < 0.02 | Cc1cc(N2CCN(C(=O)c3ccc4c(-c5ccc(Cl)c(F)c5)cn(CC5CC5)c4n3)C(C)(C)C2)nc(C)c1C(=O)O [Example 160, 6-(4-(3-(4-chloro-3-fluorophenyl)-1-(cyclopropylmethyl)-1H-pyrrolo[2,3-b]pyridine-6-carbonyl)-3,3-dimethylpiperazin-1-yl)-2,4-dimethylnicotinic acid]
14 | > 10 | COC(=O)c1c(C)cc(N2CCN(C(=O)c3ccc4c(n3)c(CC(C)C)nn4-c3ccc(Cl)c(F)c3)C(C)(C)C2)nc1C [Example 64, methyl 6-(4-(1-(4-chloro-3-fluorophenyl)-3-isobutyl-1H-pyrazolo[4,3-b]pyridine-5-carbonyl)-3,3-dimethylpiperazin-1-yl)-2,4-dimethylnicotinate]
15 | 0.02 to 10 | Cc1cc(N2CCN(C(=O)c3ccc4c(-c5ccc(Cl)c(F)c5)cn(C(C)(C)C)c4n3)[C@H](C)C2)nc(C)c1C(=O)O [Example 130, (R)-6-(4-(1-(tert-butyl)-3-(4-chloro-3-fluorophenyl)-1H-pyrrolo[2,3-b]pyridine-6-carbonyl)-3-methylpiperazin-1-yl)-2,4-dimethylnicotinic acid]
16 | < 0.02 | Cc1cc(N2CCN(C(=O)c3ccc4c(-c5ccc(Cl)c(F)c5)c(C)n(CC(C)C)c4n3)C(C)(C)C2)nc(C)c1C(=O)O [Example 104, 6-(4-(3-(4-chloro-3-fluorophenyl)-1-isobutyl-2-methyl-1H-pyrrolo[2,3-b]pyridine-6-carbonyl)-3,3-dimethylpiperazin-1-yl)-2,4-dimethylnicotinic acid]
17 | < 0.02 | Cc1cc(N2CCN(C(=O)c3ccc4c(-c5ccc(Cl)c(F)c5)cn(CC5CCC5)c4n3)C(C)(C)C2)nc(C)c1C(=O)O [Example 171, 6-(4-(3-(4-chloro-3-fluorophenyl)-1-(cyclobutylmethyl)-1H-pyrrolo[2,3-b]pyridine-6-carbonyl)-3,3-dimethylpiperazin-1-yl)-2,4-dimethylnicotinic acid]
18 | 0.02 to 10 | CC(C)Cn1cc(-c2ccccc2Cl)c2ccc(C(=O)N3CCNC(=O)C3(C)C)nc21 [Example 53, 4-[3-(2-chlorophenyl)-1-isobutyl-pyrrolo[2,3-b]pyridine-6-carbonyl]-3,3-dimethyl-piperazin-2-one]
19 | 0.02 to 10 | CC(C)(C)n1cc(-c2ccc(Cl)c(F)c2)c2ccc(C(=O)N3CCC4(NC(=O)NC4=O)C(C)(C)C3)nc21 (stereo not drawn) [Example 200, 8-(1-(tert-butyl)-3-(4-chloro-3-fluorophenyl)-1H-pyrrolo[2,3-b]pyridine-6-carbonyl)-6,6-dimethyl-1,3,8-triazaspiro[4.5]decane-2,4-dione]
20 | 0.02 to 10 | Cc1cc(N2CCN(C(=O)c3ccc4c(-c5ccc(Cl)c(F)c5)nn(C(C)(C)C)c4n3)C(C)(C)C2)nc(C)c1C(=O)O [Example 87, 6-(4-(1-(tert-butyl)-3-(4-chloro-3-fluorophenyl)-1H-pyrazolo[3,4-b]pyridine-6-carbonyl)-3,3-dimethylpiperazin-1-yl)-2,4-dimethylnicotinic acid]
21 | 0.02 to 10 | CC(C)Cn1cc(-c2cc3cc(F)ccc3[nH]2)c2ccc(C(=O)N3CCNC(=O)C3(C)C)nc21 [Example 225, 4-(3-(5-fluoro-1H-indol-2-yl)-1-isobutyl-1H-pyrrolo[2,3-b]pyridine-6-carbonyl)-3,3-dimethylpiperazin-2-one]
22 | 0.02 to 10 | CC1(C)C(=O)NCCN1C(=O)c1ccc2c(n1)c(C1CCOCC1)nn2-c1ccc(Cl)c(F)c1 [Example 72, 4-(1-(4-chloro-3-fluorophenyl)-3-(tetrahydro-2H-pyran-4-yl)-1H-pyrazolo[4,3-b]pyridine-5-carbonyl)-3,3-dimethylpiperazin-2-one]
23 | 0.02 to 10 | CC(C)(C)n1cc(-c2ccc(Cl)c(F)c2)c2ccc(C(=O)N3CCC4(CC3)CNC(=O)C4)nc21 [Example 14, 8-(1-(tert-butyl)-3-(4-chloro-3-fluorophenyl)-1H-pyrrolo[2,3-b]pyridine-6-carbonyl)-2,8-diazaspiro[4.5]decan-3-one]
24 | 0.02 to 10 | Cc1cc(N2CCN(C(=O)c3cc(C)c4c(-c5ccc(Cl)c(F)c5)cn(CC(C)C)c4n3)C(C)(C)C2)nc(C)c1C(=O)O [Example 188, 6-(4-(3-(4-chloro-3-fluorophenyl)-1-isobutyl-4-methyl-1H-pyrrolo[2,3-b]pyridine-6-carbonyl)-3,3-dimethylpiperazin-1-yl)-2,4-dimethyinicotinic acid]
25 | 0.02 to 10 | CC(C)Cn1cc(-c2ccccc2F)c2ccc(C(=O)N3CCNC(=O)C3(C)C)nc21 [Example 113, 4-(3-(2-fluorophenyl)-1-isobutyl-1H-pyrrolo[2,3-b]pyridine-6-carbonyl)-3,3-dimethylpiperazin-2-one]
26 | 0.02 to 10 | CC(C)(C)n1cc(-c2ccc(Cl)c(F)c2)c2ccc(C(=O)N3CCC4(CC3)NC(=O)NC4=O)nc21 [Example 24, 8-(1-(tert-butyl)-3-(4-chloro-3-fluorophenyl)-1H-pyrrolo[2,3-b]pyridine-6-carbonyl)-1,3,8-triazaspiro[4.5]decane-2,4-dione]
27 | > 10 | CC1(C)CN(c2ccc(P(=O)(O)O)cn2)CCN1C(=O)c1ccc2c(-c3ccc(Cl)c(F)c3)cn(C(C)(C)C)c2n1 [Example 194, (6-(4-(1-(tert-butyl)-3-(4-chloro-3-fluorophenyl)-1H-pyrrolo[2,3-b]pyridine-6-carbonyl)-3,3-dimethylpiperazin-1-yl)pyridin-3-yl)phosphonic acid]
